# Measured values from publication PMC9516332 (Frontiers in Oncology, 2022).
# Key:
# Assay in all cases: Kinase panel profiling at 1 µmol/L (MSA or IMAP), percentage inhibition
# Format in all cases: biochemical
# [1] = biological target: panel of 255 wild-type kinases (Homo sapiens, UniProt Q16539); conditions: p38α; 1 µmol/L single concentration; read-out: %-inhibition, p38α
# [2] = biological target: panel of 255 wild-type kinases (Homo sapiens, UniProt Q04912); conditions: kinase RON; 1 µmol/L single concentration; read-out: %-inhibition at 1 µmol/L, RON
# [3] = biological target: T1, panel of 255 wild-type kinases (Homo sapiens, UniProt O15146); conditions: MUSK; 1 µmol/L single concentration; read-out: %-inhibition, MUSK
# T1 sequence (O15146 24-869): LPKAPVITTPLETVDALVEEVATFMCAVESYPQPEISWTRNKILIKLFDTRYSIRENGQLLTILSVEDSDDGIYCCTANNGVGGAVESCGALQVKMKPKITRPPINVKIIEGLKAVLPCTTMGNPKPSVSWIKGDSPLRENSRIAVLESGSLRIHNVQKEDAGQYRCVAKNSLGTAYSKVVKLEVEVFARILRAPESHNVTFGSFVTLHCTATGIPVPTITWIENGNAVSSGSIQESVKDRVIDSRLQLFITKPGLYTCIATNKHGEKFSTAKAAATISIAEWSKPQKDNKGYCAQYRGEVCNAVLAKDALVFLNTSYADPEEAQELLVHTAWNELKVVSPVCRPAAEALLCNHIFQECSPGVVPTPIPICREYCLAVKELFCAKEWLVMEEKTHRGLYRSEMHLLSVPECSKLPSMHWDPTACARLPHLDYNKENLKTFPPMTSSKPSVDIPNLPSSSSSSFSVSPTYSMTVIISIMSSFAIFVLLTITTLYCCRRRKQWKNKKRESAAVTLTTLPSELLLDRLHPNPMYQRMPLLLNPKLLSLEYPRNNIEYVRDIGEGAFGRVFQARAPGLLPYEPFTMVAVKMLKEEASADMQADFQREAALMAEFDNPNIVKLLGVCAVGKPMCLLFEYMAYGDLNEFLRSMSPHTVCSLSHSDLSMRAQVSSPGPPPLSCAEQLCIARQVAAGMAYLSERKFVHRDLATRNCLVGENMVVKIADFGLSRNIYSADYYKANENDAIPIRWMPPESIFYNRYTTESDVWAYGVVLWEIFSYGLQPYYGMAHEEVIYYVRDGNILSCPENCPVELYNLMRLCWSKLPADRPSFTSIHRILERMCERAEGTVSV
# [4] = biological target: panel of 255 wild-type kinases (Homo sapiens, UniProt Q06187); conditions: BTK kinase assay; 1 µmol/L single concentration; read-out: %-inhibition BTK
# [5] = biological target: panel of 255 wild-type kinases (Homo sapiens, UniProt P43405); conditions: kinase SYK; 1 µmol/L single concentration; read-out: %-inhibition at 1 µmol/L, SYK
# [6] = biological target: panel of 255 wild-type kinases (Homo sapiens, UniProt P49137); conditions: kinase MAPKAPK2; 1 µmol/L single concentration; read-out: %-inhibition at 1 µmol/L, MAPKAPK2
# [7] = biological target: panel of 255 wild-type kinases (Homo sapiens, UniProt Q16620); conditions: kinase TRKB; 1 µmol/L single concentration; read-out: %-inhibition at 1 µmol/L, TRKB
# [8] = biological target: panel of 255 wild-type kinases (Homo sapiens, UniProt Q9BUB5); conditions: MNK1; 1 µmol/L single concentration; read-out: %-inhibition, MNK1
# [9] = biological target: T2, panel of 255 wild-type kinases (Homo sapiens, UniProt Q8TD19); conditions: NEK9; 1 µmol/L single concentration; read-out: %-inhibition, NEK9
# T2 sequence (Q8TD19 1-979): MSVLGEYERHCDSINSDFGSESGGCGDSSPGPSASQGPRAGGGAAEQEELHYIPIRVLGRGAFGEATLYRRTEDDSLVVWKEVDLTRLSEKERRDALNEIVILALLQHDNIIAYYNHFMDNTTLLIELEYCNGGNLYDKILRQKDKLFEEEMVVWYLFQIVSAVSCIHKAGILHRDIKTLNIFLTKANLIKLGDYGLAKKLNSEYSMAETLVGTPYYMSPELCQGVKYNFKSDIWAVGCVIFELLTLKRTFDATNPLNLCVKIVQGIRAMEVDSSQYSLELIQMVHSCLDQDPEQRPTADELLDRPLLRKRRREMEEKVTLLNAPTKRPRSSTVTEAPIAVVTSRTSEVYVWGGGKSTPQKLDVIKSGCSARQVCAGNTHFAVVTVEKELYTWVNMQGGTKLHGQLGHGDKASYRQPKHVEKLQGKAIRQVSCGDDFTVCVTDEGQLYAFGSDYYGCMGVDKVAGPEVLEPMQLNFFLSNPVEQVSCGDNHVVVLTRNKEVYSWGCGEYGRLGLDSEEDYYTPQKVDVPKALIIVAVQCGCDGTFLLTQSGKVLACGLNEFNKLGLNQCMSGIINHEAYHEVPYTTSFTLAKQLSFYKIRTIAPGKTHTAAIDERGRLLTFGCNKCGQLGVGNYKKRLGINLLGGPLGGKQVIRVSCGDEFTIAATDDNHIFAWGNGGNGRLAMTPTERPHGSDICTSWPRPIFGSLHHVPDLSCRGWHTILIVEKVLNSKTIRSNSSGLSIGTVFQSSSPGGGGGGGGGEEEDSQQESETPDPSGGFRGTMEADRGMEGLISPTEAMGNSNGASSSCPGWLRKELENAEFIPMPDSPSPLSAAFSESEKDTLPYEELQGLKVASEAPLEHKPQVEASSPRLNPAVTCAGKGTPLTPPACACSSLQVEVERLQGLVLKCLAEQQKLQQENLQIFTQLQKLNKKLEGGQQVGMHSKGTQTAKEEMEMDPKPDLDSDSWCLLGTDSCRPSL
SMILES,inhibition at 1 µM [1] [%],inhibition at 1 µM [2] [%],inhibition at 1 µM [3] [%],inhibition at 1 µM [4] [%],inhibition at 1 µM [5] [%],inhibition at 1 µM [6] [%],inhibition at 1 µM [7] [%],inhibition at 1 µM [8] [%],inhibition at 1 µM [9] [%]
CO[C@]1(C(=O)N[C@@H](C)c2ccc(-n3cc(F)cn3)nc2)CC[C@H](c2nc(C)cc(Nc3cc(C)[nH]n3)n2)CC1 [pralsetinib],3,2.6,73,53,85,-31,94,-4.32,16
CCn1c(=O)c(-c2cc(NC(=O)Nc3ccccc3)c(F)cc2Br)cc2cnc(NC)cc21 [ripretinib],88,1.39,11,4.22,-8,-24,64,8.51,-2.78
COc1ccc(CN2C3CC2CN(c2ccc(-c4cc(OCC(C)(C)O)cn5ncc(C#N)c45)cn2)C3)cn1 [selpercatinib],-0.132,49,10,17,7.5,-5.47,16,42,-0.802
Cn1cnc2c(F)c(Nc3ccc(Br)cc3Cl)c(C(=O)NOCCO)cc21 [selumetinib],3.34,-1.28,7,52,-12,-5,4,-6.56,0.727
Cc1cc(Nc2ncnc3ccc(NC4=NC(C)(C)CO4)cc23)ccc1Oc1ccn2ncnc2c1 [tucatinib],1.53,2.23,2.26,21,-0.549,-28,6,-1.41,-2
